Laboratory results as given in PubChem BioAssay AID330 (DTP/NCI, 2004).
Several values for one entry are separate records, joined by “and”; a condition that tells them apart may be missing. Equal values may be shown once. Inconclusive results and toxic doses are left out.

Test system: P388 leukemia ip, CD2F1 mice, survival T/C
Assay: NCI In Vivo Anticancer Drug Screen. Data for tumor model P388 Leukemia (intraperitoneal) in CD2F1 (CDF1) mice
Settings: endpoint: median survival time, higher = longer survival
Outline: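 Mice carrying the transplanted tumor received test compound or vehicle. Survival was recorded in each group, and the value is the treated-group measurement divided by that of the vehicle-treated control group.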

[1] = dose: 50.0 mg/kg/injection, schedule: Q01DX009 (ip), vehicle: Klucel (hydroxypropylcellulose) (HPC)
[2] = dose: 100.0 mg/kg/injection, schedule: Q01DX009 (ip), vehicle: Klucel (hydroxypropylcellulose) (HPC)
[3] = dose: 200.0 mg/kg/injection, schedule: Q01DX009 (ip), vehicle: Klucel (hydroxypropylcellulose) (HPC)
[4] = dose: 30.0 mg/kg/injection, schedule: Q01DX009 (ip), vehicle: saline
[5] = dose: 100.0 mg/kg/injection, schedule: Q04DX002 (ip), vehicle: saline
[6] = dose: 100.0 mg/kg/injection, schedule: Q01DX009 (ip), vehicle: saline with Tween-80
[7] = dose: 200.0 mg/kg/injection, schedule: Q01DX009 (ip), vehicle: saline with Tween-80
[8] = dose: 50.0 mg/kg/injection, schedule: Q01DX009 (ip), vehicle: saline with Tween-80
[9] = dose: 50.0 mg/kg/injection, schedule: Q01DX009 (ip), vehicle: saline
[10] = dose: 100.0 mg/kg/injection, schedule: Q01DX009 (ip), vehicle: saline
[11] = dose: 200.0 mg/kg/injection, schedule: Q01DX009 (ip), vehicle: saline
[12] = dose: 100.0 mg/kg/injection, schedule: Q01DX001 (ip), vehicle: saline with Tween-80
[13] = dose: 200.0 mg/kg/injection, schedule: Q01DX001 (ip), vehicle: saline with Tween-80

With `COc1ccc(C=NC#N)cc1` the T/C [1] was 101 % of control, the T/C [2] was 93 % of control and the T/C [3] was 88 % of control.

In the case of `CC1(C)N=C(N)N=C(N)N1c1ccc(CCCCc2ccc(S(=O)(=O)F)cc2)c(Cl)c1`, the T/C (dose: 13.2 mg/kg/injection, schedule: Q01DX009 (ip), vehicle: saline) is reported as 154 % of control, the T/C (dose: 20.0 mg/kg/injection, schedule: Q01DX009 (ip), vehicle: saline) is reported as 159 % of control and the T/C [4] is reported as 159 % of control. For the same molecule, the T/C (dose: 45.0 mg/kg/injection, schedule: Q01DX009 (ip), vehicle: saline) was 186 % of control.

In the case of `COc1cccc2c1C(=O)c1c(O)c3c(c(O)c1C2=O)C[C@@](O)(C(C)=O)C[C@@H]3OC1CC(N(CCO)Cc2ccccc2)C(O)C(C)O1` (some centres not stated), the T/C (dose: 4.0 mg/kg/injection, schedule: Q04DX003 (ip), vehicle: water) is reported as 105 % of control, the T/C (dose: 8.0 mg/kg/injection, schedule: Q04DX003 (ip), vehicle: water) is reported as 113 % of control and the T/C (dose: 12.5 mg/kg/injection, schedule: Q04DX003 (ip), vehicle: water) is reported as 114 % of control. The T/C (dose: 32.0 mg/kg/injection, schedule: Q04DX003 (ip), vehicle: water) was 155 % of control, the T/C (dose: 50.0 mg/kg/injection, schedule: Q04DX003 (ip), vehicle: water) was 172 % of control and the T/C (dose: 64.0 mg/kg/injection, schedule: Q04DX003 (ip), vehicle: water) was 179 % of control. For the same molecule, the T/C (dose: 100.0 mg/kg/injection, schedule: Q04DX003 (ip), vehicle: water) was 223 % of control, the T/C (dose: 128.0 mg/kg/injection, schedule: Q04DX003 (ip), vehicle: water) was 240 % of control and the T/C (dose: 200.0 mg/kg/injection, schedule: Q04DX003 (ip), vehicle: water) was 124 % of control.

For `CC(C)c1nc2ccc(Cl)cc2[nH]1`, the T/C (dose: 50.0 mg/kg/injection, schedule: Q01DX005 (ip), vehicle: saline with Tween-80) was 105 % of control and the T/C (dose: 100.0 mg/kg/injection, schedule: Q01DX005 (ip), vehicle: saline with Tween-80) was 100 % of control.

For `NC1=NC(O)(c2ccccc2)C(O)(c2ccccc2)N1` (configuration not stated), the T/C (dose: 25.0 mg/kg/injection, schedule: Q04DX002 (ip), vehicle: saline) was 98 % of control, the T/C (dose: 50.0 mg/kg/injection, schedule: Q04DX002 (ip), vehicle: saline) was 97 % of control and the T/C [5] was 98 % of control.

With `CN(C)CCCNc1cccc2c1C(=O)c1c(NCCCN(C)C)cccc1C2=O` the T/C (dose: 3.75 mg/kg/injection, schedule: Q01DX009 (ip), vehicle: saline) was 99 % of control, the T/C (dose: 7.5 mg/kg/injection, schedule: Q01DX009 (ip), vehicle: saline) was 105 % of control and the T/C (dose: 12.5 mg/kg/injection, schedule: Q01DX009 (ip), vehicle: water) was 98 % of control. The T/C (dose: 15.0 mg/kg/injection, schedule: Q01DX009 (ip), vehicle: saline) was 106 % of control, the T/C (dose: 25.0 mg/kg/injection, schedule: Q01DX009 (ip), vehicle: water) was 95 % of control and the T/C [4] was 96 % of control. For the same molecule, the T/C (dose: 60.0 mg/kg/injection, schedule: Q01DX009 (ip), vehicle: saline) was 90 % of control.

With `S` the T/C [6] was 113 % of control, the T/C [7] was 115 % of control and the T/C (dose: 400.0 mg/kg/injection, schedule: Q01DX009 (ip), vehicle: saline with Tween-80) was 113 % of control.

`NC(=O)c1cc(C(Cl)Cl)ccn1` was tested, and the T/C (dose: 60.0 mg/kg/injection, schedule: Q01DX005 (ip), vehicle: Klucel (hydroxypropylcellulose) (HPC)) was 100 % of control, the T/C (dose: 120.0 mg/kg/injection, schedule: Q01DX005 (ip), vehicle: Klucel (hydroxypropylcellulose) (HPC)) was 99 % of control and the T/C (dose: 240.0 mg/kg/injection, schedule: Q01DX005 (ip), vehicle: Klucel (hydroxypropylcellulose) (HPC)) was 93 % of control.

With `COC1OCN(Cc2ccccc2)CC1(C)C` (configuration not stated) the T/C [8] was 108 % of control and the T/C [6] was 120 % of control.

In the case of `O=S(=O)(O)OCNc1cc(F)cc(F)c1`, the T/C [9] is reported as 96 % of control, the T/C [10] is reported as 99 % of control and the T/C [11] is reported as 101 % of control.

In the case of `COc1cc2ccc(=O)oc2cc1O`, the T/C (dose: 3.75 mg/kg/injection, schedule: Q01DX009 (ip), vehicle: saline with Tween-80) is reported as 100 % of control, the T/C (dose: 7.5 mg/kg/injection, schedule: Q01DX009 (ip), vehicle: saline with Tween-80) is reported as 103 % of control and 98 % of control and the T/C (dose: 15.0 mg/kg/injection, schedule: Q01DX009 (ip), vehicle: saline with Tween-80) is reported as 100 % of control and 107 % of control. For the same molecule, the T/C (dose: 30.0 mg/kg/injection, schedule: Q01DX009 (ip), vehicle: saline with Tween-80) was 104 % of control and 91 % of control, the T/C [9] was 95 % of control and the T/C (dose: 50.0 mg/kg/injection, schedule: Q01DX009 (ip), vehicle: suspension in saline) was 99 % of control and 106 % of control. The T/C [10] was 100 % of control, the T/C (dose: 100.0 mg/kg/injection, schedule: Q01DX009 (ip), vehicle: suspension in saline) was 104 % of control and 109 % of control and the T/C [11] was 100 % of control. For the same molecule, the T/C (dose: 200.0 mg/kg/injection, schedule: Q01DX009 (ip), vehicle: suspension in saline) was 107 % of control and 108 % of control, the T/C (dose: 400.0 mg/kg/injection, schedule: Q01DX009 (ip), vehicle: saline) was 100 % of control and the T/C (dose: 400.0 mg/kg/injection, schedule: Q01DX009 (ip), vehicle: suspension in saline) was 111 % of control.

With `Cc1ccc(S(=O)(=O)c2cnc(N3CCN(C)CC3)nc2N)cc1` the T/C [5] was 100 % of control, the T/C (dose: 200.0 mg/kg/injection, schedule: Q04DX002 (ip), vehicle: saline) was 100 % of control and the T/C (dose: 400.0 mg/kg/injection, schedule: Q04DX002 (ip), vehicle: saline) was 93 % of control.

In the case of `CC(=O)Oc1ccc(OCc2ccccc2)c(OCc2ccccc2)c1`, the T/C [8] is reported as 102 % of control, the T/C [6] is reported as 99 % of control and the T/C [7] is reported as 107 % of control.

For `COc1ccc(-c2c3c(c(O)c4cc5c(cc24)OCO5)COC3=O)cc1OC`, the T/C (dose: 12.5 mg/kg/injection, schedule: Q01DX009 (ip), vehicle: Klucel (hydroxypropylcellulose) (HPC)) was 95 % of control, the T/C (dose: 25.0 mg/kg/injection, schedule: Q01DX009 (ip), vehicle: Klucel (hydroxypropylcellulose) (HPC)) was 104 % of control and the T/C [1] was 99 % of control. For the same molecule, the T/C [2] was 105 % of control.

For `O=S(=O)(c1ccccc1)N1CC2(CN(S(=O)(=O)c3ccccc3)c3ccccc31)CN(S(=O)(=O)c1ccccc1)c1ccccc1N(S(=O)(=O)c1ccccc1)C2`, the T/C [12] was 90 % of control, the T/C [13] was 87 % of control and the T/C (dose: 400.0 mg/kg/injection, schedule: Q01DX001 (ip), vehicle: saline with Tween-80) was 88 % of control.

With `COc1cc2c(cc1OC)C1Cc3ccc4cc(OC)c(OC)cc4c3CN1CC2` (configuration not stated) the T/C (dose: 25.0 mg/kg/injection, schedule: Q01DX009 (ip), vehicle: saline with Tween-80) was 90 % of control, the T/C [8] was 100 % of control and the T/C [6] was 95 % of control.

`COc1nc(Nc2cccc(F)c2)nc(OC)n1` was tested, and the T/C [1] was 98 % of control, the T/C [2] was 95 % of control and the T/C [3] was 101 % of control.

`Nc1nc(N)c2c(ccc3nc(-c4ccccc4)c(-c4ccccc4)nc32)n1` was tested, and the T/C [12] was 87 % of control and the T/C [13] was 90 % of control.

`NNc1ccc2cccc([N+](=O)[O-])c2n1` was tested, and the T/C (dose: 25.0 mg/kg/injection, schedule: Q01DX009 (ip), vehicle: other) was 106 % of control, the T/C (dose: 50.0 mg/kg/injection, schedule: Q01DX009 (ip), vehicle: other) was 100 % of control and the T/C (dose: 100.0 mg/kg/injection, schedule: Q01DX009 (ip), vehicle: other) was 100 % of control.

`c1ccc2c(NCCCCCCCCCCNc3c4ccccc4nc4ccccc34)c3ccccc3nc2c1` was tested, and the T/C (dose: 0.62 mg/kg/injection, schedule: Q## X009 (ip), vehicle: lactic acid) was 104 % of control, the T/C (dose: 1.25 mg/kg/injection, schedule: Q## X009 (ip), vehicle: lactic acid) was 118 % of control and the T/C (dose: 5.0 mg/kg/injection, schedule: Q## X009 (ip), vehicle: lactic acid) was 120 % of control. The T/C (dose: 10.0 mg/kg/injection, schedule: Q## X009 (ip), vehicle: lactic acid) was 90 % of control.
